# Read-outs that look alike come from different tables or passages of the source.
# Legend:
# [1] = system: CHOK1 cell lines Fth1_WT and Fth1_KO
# [2] = system: HEK293T cell line; conditions: 125 μM FeSO4, 72 hours, cells transfected with pCDNA3.1-CMV-cgFth1-p2A-EGFP vs Mock vector
# Protocol: (§1) After 24 hours of adherent culture in F12 medium (Ham's F-12 Nutrient Mix, Gibco) containing 10% FBS, the transfection of vectors (pCDNA3.1-CMV-cgFth1-p2A-EGFP and pCDNA3.1-CMV-p2A-EGFP_Mock, which served as a blank control group) were carried out with Lipofectamine 3000 (Thermo Fisher Scientific Inc.) to promote the overexpression of FTH1 gene. 24 hours after the DNA transfection of the vectors, 125 μM ferrous sulfate (FeSO4) was added to the cell culture broth, and at the same time different doses of ferroptosis inducers FINO2 (0 μM to 20 μM) were added to induce ferroptosis. After 3 days (72 hours) of action, the Celigo Image Cytometer (Nexcelom) was used to analyze the fluorescence cell count and fluorescence quantification, thereby estimating the screening efficiency.
# [3] = system: VERO cell line; conditions: 125 μM FeSO4, 72 hours, cells transfected with pCDNA3.1-CMV-cgFth1-p2A-EGFP vs Mock vector
# Protocol: as §1
# [4] = system: CHOK1 cell lines Fth1-WT and Fth1-KO transfected with pCDNA3.1-CMV-cgFth1-p2A-EGFP; test: Screening efficiency of transfected cells under iron ion-induced ferroptosis (Celigo Image Cytometer); format: cell-based, Chinese hamster
# Protocol: as §1, with “vector (pCDNA3.1-CMV-cgFth1-p2A-EGFP) was” for “vectors (pCDNA3.1-CMV-cgFth1-p2A-EGFP and pCDNA3.1-CMV-p2A-EGFP_Mock, which served as a blank control group) were”, “the” for “the fluorescence”, “morphology, viability, cell count, fluorescent cell count,” for “count”
# [5] = system: CHOK1 cell lines Fth1_WT and Fth1_KO; test: Cytotoxicity test of screening medium formulations (AlamarBlue cell viability); conditions: FINO2 and fatty acid PA together, without the addition of iron ions FeSO4
# [6] = system: SKBR3 breast cancer cells rich in HER2 antigen; test: ADCC biological activity reporter gene assay (Jurkat-hFcγRIIIa-NFAT effector cells, luciferase); format: cell-based; conditions: compared with the validated purified Anti-HER2 IgG1 (h4D5) recombinant antibody protein; 24 hours of reaction
# Protocol: Jurkat-hFcγRIIIa-NFAT gene transgenic cells was used as effector cells and SKBR3 breast cancer cells rich in HER2 antigen was used as target cells in ADCC biological activity reporter gene detection system (Promega, #G9790).
# First, 100 μl of SKBR3 cells with a cell density of 10^5/ml were added to the 96-well culture plate, placed at 37° C. for overnight culture to allow the cells to adhere and grow, the supernatant was removed the next day, and 25 μl of serially diluted recombinant antibodies prepared in […] medium containing 0.5% fetal bovine serum were added. Next, 25 μl of lurkat-hFcγRIIIa-NFAT effector cells with a cell density of 6×10^6/ml were added.
compound,measurement,setting,value
CC1(CCO)CC2(CCC(C(C)(C)C)CC2)OO1 (centres unmarked) [FINO2],cytotoxicity,[1],did not cause cytotoxicity
same,concentration producing significant screening effects,[2],1.25 µM
same,concentration producing significant screening effects,[3],5 µM
same,relation of increased dose to overall cell viability,"[4]; FINO2 0 μM to 20 μM with 125 μM FeSO4, 72 hours",negatively correlated with overall cell viability
same,cell screening rate,"[4]; high dose of ferroptosis inducer (>15 μM), 125 μM FeSO4, 72 hours",100%
"CCCCCCCCCCCCCCCC(=O)O [PA, Palmitic acid]",cytotoxicity,[5],did not cause cytotoxicity
V2: Anti-HER2 IgG1 (h4D5) recombinant antibody produced by expression vector pBudCE4.1-CMV-GOI1-SV40-cgFth1-EF1α-GOI2,ADCC effect,[6],could obviously induce ADCC
"V3: Anti-HER2 IgG1 (h4D5) recombinant antibody from cell line C8, vector pcDNA3.1-CMV-GOI1-furin-p2A-GOI2-IRES-cgFth1, without adding iron ions",ADCC effect,[6],could obviously induce ADCC

# Source: patent US12275953B2, “Methods for screening host cells expressing target proteins” (Industrial Technology Research Institute, priority 2020, dated 2025)
